Laboratory results published in patent US20250171437A1 (Agios Pharmaceuticals,Inc., priority 2022, published 2025).

Molecular target: T1, human PAH with the R408W mutation (A375 R408W cells) (Homo sapiens, UniProt P00439, R408W)
T1 construct: expressed in transfected cells
T1 sequence (P00439 1-452 R408W): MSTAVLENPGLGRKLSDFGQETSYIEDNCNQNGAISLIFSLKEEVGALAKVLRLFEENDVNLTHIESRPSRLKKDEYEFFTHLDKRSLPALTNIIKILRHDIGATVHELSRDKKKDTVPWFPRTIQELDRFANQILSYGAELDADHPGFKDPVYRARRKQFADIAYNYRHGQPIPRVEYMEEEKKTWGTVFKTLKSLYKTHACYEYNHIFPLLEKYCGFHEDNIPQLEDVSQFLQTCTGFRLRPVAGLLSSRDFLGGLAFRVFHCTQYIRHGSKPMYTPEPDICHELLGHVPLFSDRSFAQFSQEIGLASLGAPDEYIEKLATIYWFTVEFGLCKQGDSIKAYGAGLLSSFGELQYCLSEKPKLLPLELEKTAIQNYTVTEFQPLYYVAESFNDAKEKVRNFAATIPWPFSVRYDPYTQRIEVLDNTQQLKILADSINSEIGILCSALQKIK
Assay: Cell Based Phenylalanine Flux Assay
Conditions: 24 hrs with compound, then 20 μM sepiapterin and 800 μM 13C9,15N-Phenylalanine for 4 hours, 13C-Tyrosine by LC-MS, average where tested multiple times
Outline: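 A375 cells stably expressing human PAH R408W treated 24 h at 37° C with a 10-point 2-fold dose curve in duplicate, 0.5% DMSO. Then 20 μM sepiapterin and 800 μM 13C9,15N-Phe added for 4 h; 13C-Tyr in media measured by LC-MS to give AC50.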

[1] = A375 cells expressing R408W PAH

CC(C)(O)c1nc(C(F)(F)F)c(C(=O)N2CCc3[nH]cnc3[C@H]2c2nc3ccc(F)cc3o2)o1 [Example 255, (S)-(4-(6-fluorobenzo[d]oxazol-2-yl)-6,7-dihydro-1H-imidazo[4,5-c]pyridin-5(4H)-yl)(2-(2-hydroxypropan-2-yl)-4-(trifluoromethyl)oxazol-5-yl)methanone]
AC50 (A375 R408W cells): ≤ 0.5 µM

Cn1ccc(-c2nnc(C(=O)N3CCc4[nH]cnc4[C@H]3c3nc4cc(F)ccc4o3)o2)n1 [Example 106, (S)-(4-(5-fluorobenzo[d]oxazol-2-yl)-6,7-dihydro-1H-imidazo[4,5-c]pyridin-5(4H)-yl)(5-(1-methyl-1H-pyrazol-3-yl)-1,3,4-oxadiazol-2-yl)methanone]
AC50 (A375 R408W cells): 1 to 5 µM

O=C(c1cn[nH]c1)N1CCc2[nH]cnc2[C@H]1c1nc2cc(F)ccc2o1 (single isomer, unassigned)
AC50 [1]: ≥ 5 µM

Cc1cccc2nc([C@H]3c4nc[nH]c4CCN3C(=O)c3nc(C(F)F)nn3C)oc12 [Example 614, (R)-(3-(difluoromethyl)-1-methyl-1H-1,2,4-triazol-5-yl)(4-(7-methylbenzo[d]oxazol-2-yl)-6,7-dihydro-1H-imidazo[4,5-c]pyridin-5(4H)-yl)methanone]
AC50 (A375 R408W cells): 1 to 5 µM

COC(=O)Nc1ccc2c(C(=O)N3CCc4[nH]cnc4C3c3nc4cc(F)ccc4o3)cnn2c1 (stereo not drawn)
AC50 [1]: ≥ 5 µM

CC(C)(O)c1nc(C(F)F)c(C(=O)N2CCc3[nH]cnc3[C@H]2c2nc3cc(Cl)ccc3o2)o1 [Example 375, (S)-(4-(5-chlorobenzo[d]oxazol-2-yl)-6,7-dihydro-1H-imidazo[4,5-c]pyridin-5(4H)-yl)(4-(difluoromethyl)-2-(2-hydroxypropan-2-yl)oxazol-5-yl)methanone]
AC50 (A375 R408W cells): 0.5 to 1 µM

O=C(c1cnco1)N1CCc2[nH]cnc2C1c1nc2cc(F)ccc2o1 (stereo not drawn)
AC50 [1]: 1 to 5 µM

Cn1cc(-c2nnc(C(=O)N3CCc4[nH]cnc4[C@@H]3c3nc4ccccc4o3)o2)cn1 [Example 582, (R)-(4-(benzo[d]oxazol-2-yl)-6,7-dihydro-1H-imidazo[4,5-c]pyridin-5(4H)-yl)(5-(1-methyl-1H-pyrazol-4-yl)-1,3,4-oxadiazol-2-yl)methanone]
AC50 (A375 R408W cells): 1 to 5 µM

O=C(c1nnc(-c2ncccc2F)o1)N1CCc2[nH]cnc2[C@H]1c1nc2c(F)ccc(F)c2o1 [Example 800, (S)-(4-(4,7-difluorobenzo[d]oxazol-2-yl)-6,7-dihydro-1H-imidazo[4,5-c]pyridin-5(4H)-yl)(5-(3-fluoropyridin-2-yl)-1,3,4-oxadiazol-2-yl)methanone]
AC50 (A375 R408W cells): ≤ 0.5 µM

Cc1nc([C@@H](C)O)oc1C(=O)N1CCc2[nH]cnc2[C@@H]1c1nc2cc(F)ccc2o1 [Example 136, ((R)-4-(5-fluorobenzo[d]oxazol-2-yl)-6,7-dihydro-1H-imidazo[4,5-c]pyridin-5(4H)-yl)(2-((R)-1-hydroxyethyl)-4-methyloxazol-5-yl)methanone]
AC50 (A375 R408W cells): ≥ 5 µM

CC(C)(O)c1nc(C(F)F)c(C(=O)N2CCc3[nH]cnc3[C@@H]2c2nc3ccc(F)cc3o2)o1 [Example 188, (R)-(4-(difluoromethyl)-2-(2-hydroxypropan-2-yl)oxazol-5-yl)(4-(6-fluorobenzo[d]oxazol-2-yl)-6,7-dihydro-1H-imidazo[4,5-c]pyridin-5(4H)-yl)methanone]
AC50 (A375 R408W cells): 1 to 5 µM

CC(C)(O)c1nc(C(F)F)c(C(=O)N2CCc3[nH]cnc3C2c2nc3cc(C#N)ccc3o2)o1 (stereo not drawn)
AC50 [1]: 1 to 5 µM

CC(C)(O)c1nc(C(F)F)c(C(=O)N2CCc3[nH]cnc3[C@@H]2c2nc3cc(Br)ccc3o2)o1 [Example 416, [(4R)-4-(5-bromo-1,3-benzoxazol-2-yl)-1,4,6,7-tetrahydroimidazo[4,5-c]pyridin-5-yl]-[4-(difluoromethyl)-2-(1-hydroxy-1-methyl-ethyl)oxazol-5-yl]methanone]
AC50 (A375 R408W cells): 0.5 to 1 µM

O=C(c1ccnn1-c1ccccn1)N1CCc2[nH]cnc2C1c1nc2ccccc2o1 (stereo not drawn)
AC50 [1]: 1 to 5 µM

O=C(c1nnc(-c2ccccn2)o1)N1CCc2[nH]cnc2[C@@H]1c1nc2c(F)cc(F)cc2o1 [Example 524, (R)-(4-(4,6-difluorobenzo[d]oxazol-2-yl)-6,7-dihydro-1H-imidazo[4,5-c]pyridin-5(4H)-yl)(5-(pyridin-2-yl)-1,3,4-oxadiazol-2-yl)methanone]
AC50 (A375 R408W cells): 1 to 5 µM

Cc1ccc2oc([C@@H]3c4nc[nH]c4CCN3C(=O)c3nnc(-c4ncccc4F)o3)nc2c1 [Example 653, (S)-(5-(3-fluoropyridin-2-yl)-1,3,4-oxadiazol-2-yl)(4-(5-methylbenzo[d]oxazol-2-yl)-6,7-dihydro-1H-imidazo[4,5-c]pyridin-5(4H)-yl)methanone]
AC50 (A375 R408W cells): ≤ 0.5 µM

CC(C)(O)c1cc(C(=O)N2CCc3[nH]cnc3C2c2nc3c(F)cccc3o2)no1 (stereo not drawn)
AC50 [1]: 1 to 5 µM

CC(C)(O)c1noc(C(=O)N2CCc3[nH]cnc3C2c2nc3cccc(F)c3o2)n1 (stereo not drawn)
AC50 [1]: 1 to 5 µM

Cn1cncc1-c1nc(C(F)F)c(C(=O)N2CCc3[nH]cnc3[C@H]2c2nc3cccc(F)c3o2)o1 [Example 692, (S)-(4-(difluoromethyl)-2-(1-methyl-1H-imidazol-5-yl)oxazol-5-yl)(4-(7-fluorobenzo[d]oxazol-2-yl)-6,7-dihydro-1H-imidazo[4,5-c]pyridin-5(4H)-yl)methanone]
AC50 (A375 R408W cells): ≤ 0.5 µM

Cc1ccc2oc([C@@H]3c4nc[nH]c4CCN3C(=O)c3ocnc3C(F)(F)F)nc2c1 [Example 63, (S)-(4-(5-methylbenzo[d]oxazol-2-yl)-6,7-dihydro-1H-imidazo[4,5-c]pyridin-5(4H)-yl)(4-(trifluoromethyl)oxazol-5-yl)methanone]
AC50 (A375 R408W cells): ≤ 0.5 µM

CC(C)(C)OC(=O)N1CCN(c2ccc3c(C(=O)N4CCc5[nH]cnc5C4c4nc5cc(F)ccc5o4)cnn3c2)CC1 (stereo not drawn)
AC50 [1]: 1 to 5 µM

O=C(c1nnc(-c2ccn(C(F)F)n2)o1)N1CCc2[nH]cnc2[C@@H]1c1nc2c(F)ccc(F)c2o1 [Example 816, (R)-(4-(4,7-difluorobenzo[d]oxazol-2-yl)-6,7-dihydro-1H-imidazo[4,5-c]pyridin-5(4H)-yl)(5-(1-(difluoromethyl)-1H-pyrazol-3-yl)-1,3,4-oxadiazol-2-yl)methanone]
AC50 (A375 R408W cells): ≤ 0.5 µM

O=C(c1oc(-c2ccc(F)cn2)nc1C(F)F)N1CCc2[nH]cnc2[C@@H]1c1nc2cc(F)ccc2o1 [Example 417, (R)-(4-(difluoromethyl)-2-(5-fluoropyridin-2-yl)oxazol-5-yl)(4-(5-fluorobenzo[d]oxazol-2-yl)-6,7-dihydro-1H-imidazo[4,5-c]pyridin-5(4H)-yl)methanone]
AC50 (A375 R408W cells): ≤ 0.5 µM

COC(C)(C)c1nc(C)c(C(=O)N2CCc3[nH]cnc3C2c2nc3cc(F)ccc3o2)o1 (stereo not drawn)
AC50 [1]: 1 to 5 µM

Cc1ccc2nc(C3c4nc[nH]c4CCN3C(=O)c3cnn4cc(CCN(C)C)ccc34)oc2c1 (stereo not drawn)
AC50 [1]: ≥ 5 µM

Cc1cccc2oc([C@H]3c4nc[nH]c4CCN3C(=O)c3ccnn3C(F)F)nc12 [Example 450, (R)-(1-(difluoromethyl)-1H-pyrazol-5-yl)(4-(4-methylbenzo[d]oxazol-2-yl)-6,7-dihydro-1H-imidazo[4,5-c]pyridin-5(4H)-yl)methanone]
AC50 (A375 R408W cells): 1 to 5 µM

COc1cccc2oc([C@@H]3c4nc[nH]c4CCN3C(=O)c3ocnc3C(F)F)nc12 [Example 429, (S)-(4-(difluoromethyl)oxazol-5-yl)(4-(4-methoxybenzo[d]oxazol-2-yl)-6,7-dihydro-1H-imidazo[4,5-c]pyridin-5(4H)-yl)methanone]
AC50 (A375 R408W cells): ≤ 0.5 µM

CC(C)(O)C1CCN(c2ccc3c(C(=O)N4CCc5[nH]cnc5[C@@H]4c4nc5c(F)cccc5o4)cnn3c2)CC1 [Example 508, (R)-(4-(4-fluorobenzo[d]oxazol-2-yl)-6,7-dihydro-1H-imidazo[4,5-c]pyridin-5(4H)-yl)(6-(4-(2-hydroxypropan-2-yl)piperidin-1-yl)pyrazolo[1,5-a]pyridin-3-yl)methanone]
AC50 (A375 R408W cells): ≥ 5 µM

O=C(c1oc(-c2ccc(C(F)(F)F)cn2)nc1C(F)F)N1CCc2[nH]cnc2[C@H]1c1nc2cc(F)ccc2o1 [Example 444, (S)-(4-(difluoromethyl)-2-(5-(trifluoromethyl)pyridin-2-yl)oxazol-5-yl)(4-(5-fluorobenzo[d]oxazol-2-yl)-6,7-dihydro-1H-imidazo[4,5-c]pyridin-5(4H)-yl)methanone]
AC50 (A375 R408W cells): ≤ 0.5 µM

O=C(c1ocnc1C(F)(F)F)N1CCc2[nH]cnc2[C@@H]1c1nc2cc(F)ccc2o1 [Example 24]
AC50 (A375 R408W cells): 1 to 5 µM

CN(C)CCNc1ccc2c(C(=O)N3CCc4[nH]cnc4C3c3nc4cc(F)ccc4o3)cnn2c1 (single isomer, unassigned) [4S enantiomer of N-[2-(dimethylamino)ethyl]-3-[4-(5-fluoro-1]
AC50 [1]: ≥ 5 µM

Cn1nc(C(F)F)cc1C(=O)N1CCc2[nH]cnc2[C@H]1c1nc2cccc(F)c2o1 [Example 733, (S)-(3-(difluoromethyl)-1-methyl-1H-pyrazol-5-yl)(4-(7-fluorobenzo[d]oxazol-2-yl)-6,7-dihydro-1H-imidazo[4,5-c]pyridin-5(4H)-yl)methanone]
AC50 (A375 R408W cells): ≤ 0.5 µM

O=C(c1cnn2cc(-c3ccccn3)ccc12)N1CCc2[nH]cnc2[C@@H]1c1nc2cccc(F)c2o1 [Example 452, (R)-(4-(7-fluorobenzo[d]oxazol-2-yl)-6,7-dihydro-1H-imidazo[4,5-c]pyridin-5(4H)-yl)(6-(pyridin-2-yl)pyrazolo[1,5-a]pyridin-3-yl)methanone]
AC50 (A375 R408W cells): 1 to 5 µM
